In one experiment the target is FLT3 kinase (Homo sapiens (Human), UniProt P36888). As to the kind of experiment: In vitro FLT3 kinase HTRF assay (Example 2). Format: biochemical. The settings on record: HTRF. The procedure: Inhibition of the FLT3 kinase activity was measured using homogeneous, time-resolved fluorescence (HTRF) assays. Recombinant proteins containing the FLT3 kinase domain were purchased from Carna biosciences (Japan). Optimal enzyme, ATP, and substrate concentrations were established using the HTRF KinEASE kit (Cisbio, France) according to the manufacturer's instructions. The FLT3 enzymes were mixed in sequence with diluted compounds and peptide substrates in a kinase reaction buffer (50 mM HEPES (pH 7.0), 500 μM ATP, 0.1 mM sodium orthovanadate, 5 mM MgCl2, 1 mM DTT, 0.01% bovine serum albumin (BSA), and 0.02% NaN3). After the addition of the reagents for detection, the TR-FRET signal was measured using a Victor multilabel reader (Perkin Elmer, Waltham, Mass., USA). […] JAK2, JAK3, cMET, and RET in vitro kinase assays were also performed using the HTRF assay.
(In general: In TR-FRET formats the signal depends on donor and acceptor labels being close together.)

The subject of another experiment is MV4;11 cells. Nature of the experiment: Cell viability, EZ-Cytox tetrazolium assay, MV4;11. Format: cell-based, human. The settings on record: 72 hours; for GI50: read-out: GI50(nM) MV4;11. How it is done:
The cultured cells were incubated at 3° C. with 5% CO2.
Cell viability was assessed by a tetrazolium-based assay using the EZ-Cytox Cell Viability Assay kit (DaeilLab, Korea). Briefly, 2,000 to 15,000 cells were plated in 96-well plates in 100 μl of medium. The next day, the cells were treated with compounds together with dimethyl sulfoxide (DMSO) as a negative control. Three days (72 hours) after the drug addition, 15 μl of the EZ-Cytox kit reagent was added to each well of the 96-well plate and then incubated at 37° C. in a humidified CO2 incubator for 4 hours. After incubation, the optical density (OD) was measured at a wavelength of 450 nm using a Victor multilabel reader (Perkin Elmer, Waltham, Mass., USA).

Setting [1] is: Table 1, recombinant FLT3 kinase domain, 500 μM ATP.

The results in this text go back to US11370779B2, “Pharmaceutical composition for preventing or treating acute myeloid leukemia or metastatic breast cancer” (PELEMED CO., LTD., priority 2017, dated 2022).

Structures can show the parent of a compound that is named as a salt.

Sequence of FLT3 kinase (P36888 610-943): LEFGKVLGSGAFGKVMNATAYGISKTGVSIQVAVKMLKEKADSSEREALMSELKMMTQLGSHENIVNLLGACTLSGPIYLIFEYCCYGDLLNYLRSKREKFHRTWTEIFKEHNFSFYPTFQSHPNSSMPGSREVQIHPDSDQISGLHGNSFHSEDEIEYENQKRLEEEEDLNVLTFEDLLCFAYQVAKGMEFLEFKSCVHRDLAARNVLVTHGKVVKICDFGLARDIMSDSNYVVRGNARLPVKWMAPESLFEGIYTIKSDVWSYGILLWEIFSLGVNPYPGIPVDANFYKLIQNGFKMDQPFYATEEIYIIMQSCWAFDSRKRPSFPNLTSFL

Regarding `NCCO/N=C1/C(=C2/C(=O)Nc3ccc(C(=O)O)cc32)Nc2ccccc21` [Compound 9, (2Z,3E)-3-((2-aminoethoxy)imino)-2′-oxo-[2,3′-biindolinylidene]-5′-carboxylic acid hydrochloride], the IC50 at FLT3 kinase (setting [1]) was determined as 3 nM; in the experiment with MV4;11 cells (Homo sapiens, MV4-11, Table 1) it was 150 nM.

Consider `COC(=O)c1ccc2c(c1)/C(=C1/Nc3ccccc3/C1=N\OCCBr)C(=O)N2` [Compound 2, Methyl (2Z,3E)-3-((2-bromoethoxy)imino)-2′-oxo-[2,3′-biindolinylidene]-5′-carboxylate], for which the half-maximal inhibitory concentration (IC50) worked out at 19 nM at FLT3 kinase (setting [1]) and 51 nM in the experiment with MV4;11 cells (Homo sapiens, MV4-11, Table 1).

“(2Z,3E)-2′-oxo-3-((2-(piperazin-1-yl)ethoximino)-[2,3′-biindolinylidene]-5′-carboxylic acid dihydrochloride [Compound 10]”: the half-maximal inhibitory concentration (IC50) on FLT3 kinase (setting [1]) is 3 nM; in the experiment with MV4;11 cells (Table 1), 40 nM.

The molecule “(2Z,3E)-34(2-(piperazin-1-yl)ethoxy)imino)-5′-(trifluoromethoxy)-[2,3′-biindolinylidene]-2′-one dihydrochloride [Compound 44]” returned an IC50 against FLT3 kinase (Table 2) of 40.2 nM. For the same molecule, the GI50 with MV4;11 cells was determined as 20 nM.

As for `CN1CCN(CCO/N=C2/C(=C3/C(=O)Nc4ccc(Br)cc43)Nc3ccccc32)CC1` [Compound 41, (2Z,3E)-5′-bromo-3-((2-(4-methylpiperazin-1-yl)ethoximino)-[2,3′-biindolinylidene]-2′-one dihydrochloride], 4.8 nM corresponded to half-maximal inhibition at FLT3 kinase (Table 2) (IC50). In addition, in the experiment on MV4;11 cells, the GI50 was 25 nM.

For `COC(=O)c1ccc2c(c1)/C(=C1/Nc3ccccc3/C1=N\OCCN)C(=O)N2` [Compound 3, Methyl (2Z,3E)-3-((2-aminoethoxy)imino)-2′-oxo-[2,3′-biindolinylidene]-5′-carboxylate hydrochloride], the 50% inhibitory concentration (IC50) on FLT3 kinase (setting [1]) was 5 nM; in the experiment on MV4;11 cells (Homo sapiens, MV4-11, Table 1), 15 nM.

For the molecule `O=C1Nc2ccc(C(=O)O)cc2/C1=C1/Nc2ccccc2/C1=N\O` [Compound 7, (2Z,3E)-3-(hydroxyimino)-2′-oxo-[2,3′-biindolinylidene]-5′-carboxylic acid], the IC50 came to 8 nM at FLT3 kinase (setting [1]) and 4020 nM in the experiment on MV4;11 cells (Homo sapiens, MV4-11, Table 1). Moreover, the “Ic50 (nM) MV4;11” value in the experiment on MV4;11 cells (Table 1) is reported as “lacking anti-proliferative activity”.

Consider `O=C1Nc2ccc(C(=O)O)cc2/C1=C1/Nc2ccccc2/C1=N\OCCBr` [Compound 8, (2Z,3E)-3-((2-bromoethoxy)imino)-2′-oxo-[2,3′-biindolinylidene]-5′-carboxylic acid], for which the 50% inhibitory concentration (IC50) at FLT3 kinase (setting [1]) was 13 nM; with MV4;11 cells (Homo sapiens, MV4-11, Table 1), 340 nM.

As for “(2Z,3E)-3-((2-(4-methylpiperazin-1-yl)ethoxy)imino)-5′-(trifluoromethox[2,3′-biindolinylidene]-2′-one dihydrochloride [Compound 45]”, half-maximal inhibition at FLT3 kinase (Table 2) (IC50) was put at 5.6 nM. The GI50 with MV4;11 cells turned out to be 22 nM.

What is called IC50 is the concentration that gives 50% inhibition. In general, GI50 refers to the concentration at which growth is held to half of that of the control.
